Earlier results as cited in US20130289102A1, “AMYRIS ALCOHOL AND ITS ESTER FOR TREATING ACNE” (Trinity Laboratories, Inc., priority 2010, published 2013).

Legend:
[1] = mouse, in vivo, po
estrogenic activity = details: among the known phytoestrogens
[2] = up to 292 mg/kg over 1 to 3 months
cyclooxygenase = details: 6.25 μg/ml, with respect to the control
[3] = tested on: UVB-induced pigmented skins
[4] = tested on: superoxide anion production; details: 0.33 μg/ml to 33.3 μg/ml
human estrogen receptor = molecular target: T1, human estrogen receptor (Homo sapiens, UniProt P03372)
T1 sequence (P03372 1-595): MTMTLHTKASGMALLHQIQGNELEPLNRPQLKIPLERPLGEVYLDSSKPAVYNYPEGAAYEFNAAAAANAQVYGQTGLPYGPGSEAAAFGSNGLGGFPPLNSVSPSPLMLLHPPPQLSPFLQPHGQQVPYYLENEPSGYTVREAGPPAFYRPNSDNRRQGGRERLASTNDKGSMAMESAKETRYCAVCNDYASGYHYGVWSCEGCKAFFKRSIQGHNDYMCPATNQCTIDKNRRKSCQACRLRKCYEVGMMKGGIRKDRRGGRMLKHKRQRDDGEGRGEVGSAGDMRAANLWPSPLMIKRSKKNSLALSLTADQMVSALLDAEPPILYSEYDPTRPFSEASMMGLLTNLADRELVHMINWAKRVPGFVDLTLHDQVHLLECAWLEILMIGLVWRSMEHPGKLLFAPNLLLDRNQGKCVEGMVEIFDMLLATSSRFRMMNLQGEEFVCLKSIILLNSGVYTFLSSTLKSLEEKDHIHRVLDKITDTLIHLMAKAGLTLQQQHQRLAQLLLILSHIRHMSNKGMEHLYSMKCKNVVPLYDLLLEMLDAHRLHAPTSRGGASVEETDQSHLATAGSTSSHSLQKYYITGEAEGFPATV

creatine kinase activity = details: rat uterus, epiphyseal cartilage, diaphyseal bone, aorta, left ventricle of the heart
[5] = tested on: post-ischemic brain injury; details: focal ischemia in rats
[6] = molecular target: presynaptic omega-agatoxin IVA-sensitive (P/Q-type) Ca^2+ channel (Rattus norvegicus, UniProt P54282)
neurogenic inflammation = details: following electrical stimulation of rat trigeminal ganglion
[7] = tested on: porcine brain microvascular endothelial cells; details: 50-100 microM
angiogenesis = details: mice
[8] = tested on: extracellular signal-regulated kinase (ERK) 1/2; details: 100 microM
Na^+, K(+)-ATPase = details: compared with other phosphatases examined
[9] = tested on: human umbilical vein endothelial cells (HUVEC)
[10] = molecular target: T2, nicotinic ACh receptor channel (Mus musculus, UniProt P02716+P04756+P09690+P20782)
T2 construct: the nicotinic acetylcholine receptor channel in mouse skeletal muscles; host or cells: mouse skeletal muscle
T2 sequence (P04756 21-457): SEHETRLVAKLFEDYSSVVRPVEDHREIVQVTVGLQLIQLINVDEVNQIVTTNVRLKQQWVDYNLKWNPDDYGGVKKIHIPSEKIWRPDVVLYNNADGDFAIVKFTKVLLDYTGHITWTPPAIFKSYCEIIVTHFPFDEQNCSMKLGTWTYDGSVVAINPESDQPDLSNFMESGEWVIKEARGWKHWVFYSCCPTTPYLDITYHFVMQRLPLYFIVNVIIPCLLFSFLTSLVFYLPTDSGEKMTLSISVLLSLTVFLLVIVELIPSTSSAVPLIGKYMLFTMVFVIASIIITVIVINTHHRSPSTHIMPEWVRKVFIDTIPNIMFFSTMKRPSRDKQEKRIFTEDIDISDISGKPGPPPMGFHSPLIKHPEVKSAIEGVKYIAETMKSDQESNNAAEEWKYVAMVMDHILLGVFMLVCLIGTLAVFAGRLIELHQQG
T2 sequence (P09690 24-501): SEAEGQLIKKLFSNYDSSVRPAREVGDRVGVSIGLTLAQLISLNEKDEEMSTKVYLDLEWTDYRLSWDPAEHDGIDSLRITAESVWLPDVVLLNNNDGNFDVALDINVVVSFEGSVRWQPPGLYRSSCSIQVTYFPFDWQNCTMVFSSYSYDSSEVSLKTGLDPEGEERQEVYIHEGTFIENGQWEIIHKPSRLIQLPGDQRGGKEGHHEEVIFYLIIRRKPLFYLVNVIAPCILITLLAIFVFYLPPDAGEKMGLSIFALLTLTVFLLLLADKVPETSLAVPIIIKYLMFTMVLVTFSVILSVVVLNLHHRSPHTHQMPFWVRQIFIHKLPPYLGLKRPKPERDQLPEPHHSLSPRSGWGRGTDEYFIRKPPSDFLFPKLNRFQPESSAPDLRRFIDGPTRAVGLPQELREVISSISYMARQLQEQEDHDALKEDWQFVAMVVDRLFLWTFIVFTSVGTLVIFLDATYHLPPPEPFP
T2 sequence (P02716 25-520): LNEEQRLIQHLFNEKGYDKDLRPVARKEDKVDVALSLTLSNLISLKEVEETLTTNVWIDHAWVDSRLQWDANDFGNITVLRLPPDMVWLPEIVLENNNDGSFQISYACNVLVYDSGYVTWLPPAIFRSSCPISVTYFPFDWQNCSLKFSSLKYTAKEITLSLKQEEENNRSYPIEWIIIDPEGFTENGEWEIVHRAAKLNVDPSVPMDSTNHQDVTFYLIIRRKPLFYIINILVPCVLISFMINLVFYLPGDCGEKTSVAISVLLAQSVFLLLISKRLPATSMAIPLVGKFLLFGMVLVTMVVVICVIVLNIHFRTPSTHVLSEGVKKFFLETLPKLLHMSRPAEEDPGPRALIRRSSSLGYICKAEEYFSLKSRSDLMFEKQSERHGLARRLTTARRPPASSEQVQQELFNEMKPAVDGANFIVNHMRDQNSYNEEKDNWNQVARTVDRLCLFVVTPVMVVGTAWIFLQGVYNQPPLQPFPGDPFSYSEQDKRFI
T2 sequence (P20782 21-493): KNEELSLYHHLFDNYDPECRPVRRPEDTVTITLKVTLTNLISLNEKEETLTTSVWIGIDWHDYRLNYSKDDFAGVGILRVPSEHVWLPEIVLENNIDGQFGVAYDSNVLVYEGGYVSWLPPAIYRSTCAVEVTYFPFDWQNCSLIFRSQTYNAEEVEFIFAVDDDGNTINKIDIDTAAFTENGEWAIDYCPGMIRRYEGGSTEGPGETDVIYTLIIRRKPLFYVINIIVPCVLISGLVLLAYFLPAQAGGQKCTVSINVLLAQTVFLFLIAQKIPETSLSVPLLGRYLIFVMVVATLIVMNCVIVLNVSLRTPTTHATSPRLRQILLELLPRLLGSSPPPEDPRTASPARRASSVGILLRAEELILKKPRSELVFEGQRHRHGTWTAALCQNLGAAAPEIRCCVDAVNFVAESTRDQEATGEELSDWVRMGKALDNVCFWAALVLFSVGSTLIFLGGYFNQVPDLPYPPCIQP

presynaptic omega-agatoxin IVA-sensitive (P/Q-type) Ca^2+ channel, sequence (P54282 whole entry): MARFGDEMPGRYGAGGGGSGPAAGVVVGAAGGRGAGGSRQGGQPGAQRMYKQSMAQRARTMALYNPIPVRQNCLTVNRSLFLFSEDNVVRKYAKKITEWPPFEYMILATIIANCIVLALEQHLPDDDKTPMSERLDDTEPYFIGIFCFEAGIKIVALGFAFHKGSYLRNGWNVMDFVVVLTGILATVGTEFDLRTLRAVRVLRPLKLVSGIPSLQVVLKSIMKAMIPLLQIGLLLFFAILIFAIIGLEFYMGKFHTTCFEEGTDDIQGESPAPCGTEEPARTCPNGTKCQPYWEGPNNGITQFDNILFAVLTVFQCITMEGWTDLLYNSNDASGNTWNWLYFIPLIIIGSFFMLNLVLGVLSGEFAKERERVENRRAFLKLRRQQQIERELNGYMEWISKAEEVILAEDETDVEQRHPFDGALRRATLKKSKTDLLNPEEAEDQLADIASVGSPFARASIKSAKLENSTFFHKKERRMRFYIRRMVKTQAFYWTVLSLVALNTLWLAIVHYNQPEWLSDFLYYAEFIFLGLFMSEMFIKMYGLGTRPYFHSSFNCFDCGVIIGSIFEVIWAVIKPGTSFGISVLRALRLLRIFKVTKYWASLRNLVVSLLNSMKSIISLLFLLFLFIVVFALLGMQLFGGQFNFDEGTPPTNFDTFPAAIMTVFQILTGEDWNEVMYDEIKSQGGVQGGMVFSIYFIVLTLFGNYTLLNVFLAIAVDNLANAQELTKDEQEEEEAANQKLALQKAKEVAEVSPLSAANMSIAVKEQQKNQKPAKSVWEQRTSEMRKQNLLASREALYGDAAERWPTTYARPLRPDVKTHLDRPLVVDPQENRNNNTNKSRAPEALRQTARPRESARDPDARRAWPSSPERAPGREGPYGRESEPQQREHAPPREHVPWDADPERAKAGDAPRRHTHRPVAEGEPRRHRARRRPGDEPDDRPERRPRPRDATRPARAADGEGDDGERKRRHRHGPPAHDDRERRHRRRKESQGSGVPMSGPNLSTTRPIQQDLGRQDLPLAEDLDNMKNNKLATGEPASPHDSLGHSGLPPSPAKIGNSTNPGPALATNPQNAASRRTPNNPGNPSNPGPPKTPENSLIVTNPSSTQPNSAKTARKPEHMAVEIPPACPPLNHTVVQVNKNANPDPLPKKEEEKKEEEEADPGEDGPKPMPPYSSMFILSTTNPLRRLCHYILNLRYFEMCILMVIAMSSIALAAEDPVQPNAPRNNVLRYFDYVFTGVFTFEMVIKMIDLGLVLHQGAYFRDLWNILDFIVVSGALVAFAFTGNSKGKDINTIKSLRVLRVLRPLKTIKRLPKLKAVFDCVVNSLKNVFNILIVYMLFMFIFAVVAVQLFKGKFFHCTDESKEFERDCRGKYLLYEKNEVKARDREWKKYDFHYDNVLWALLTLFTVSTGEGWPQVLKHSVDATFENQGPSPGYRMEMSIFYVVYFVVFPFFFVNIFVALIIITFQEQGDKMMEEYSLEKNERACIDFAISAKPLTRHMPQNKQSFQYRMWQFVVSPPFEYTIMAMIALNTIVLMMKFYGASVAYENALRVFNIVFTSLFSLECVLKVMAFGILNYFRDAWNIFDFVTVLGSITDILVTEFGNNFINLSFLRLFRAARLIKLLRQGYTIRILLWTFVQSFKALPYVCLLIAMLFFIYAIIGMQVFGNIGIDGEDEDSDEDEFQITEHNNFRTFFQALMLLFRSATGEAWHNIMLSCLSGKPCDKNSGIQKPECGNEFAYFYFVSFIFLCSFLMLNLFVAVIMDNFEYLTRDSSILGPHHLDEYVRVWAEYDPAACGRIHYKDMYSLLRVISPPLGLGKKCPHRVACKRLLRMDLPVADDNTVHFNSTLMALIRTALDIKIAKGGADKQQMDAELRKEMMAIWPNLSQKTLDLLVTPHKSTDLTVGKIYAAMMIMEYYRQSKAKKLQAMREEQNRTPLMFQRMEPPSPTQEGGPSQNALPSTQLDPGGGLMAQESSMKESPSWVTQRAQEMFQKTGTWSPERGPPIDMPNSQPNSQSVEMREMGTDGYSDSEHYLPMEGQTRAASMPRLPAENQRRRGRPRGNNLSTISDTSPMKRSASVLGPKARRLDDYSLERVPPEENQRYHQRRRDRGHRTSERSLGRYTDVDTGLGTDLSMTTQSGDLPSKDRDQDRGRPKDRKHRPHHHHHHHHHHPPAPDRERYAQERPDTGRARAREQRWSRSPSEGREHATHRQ

C[C@@H]1CC[C@H]2[C@@H](C)C(=O)O[C@@H]3O[C@@]4(C)CC[C@@H]1[C@]32OO4 [Artemisinin]
LD50 [1]: 4228 mg/kg

CC1(C)[C@H]2C(=COc3cc(O)ccc32)[C@@H]2C(=O)C[C@]3(O)C[C@H]1[C@H]2[C@H]3O [Deoxymiroestrol]
estrogenic activity (estrogenic activity): highest estrogenic activity among the known phytoestrogens

CC1(C)[C@H]2C(=COc3cc(O)ccc32)[C@]2(O)C(=O)C[C@]3(O)C[C@H]1[C@H]2[C@H]3O [Miroestrol]
estrogenic activity (estrogenic activity): highest estrogenic activity among the known phytoestrogens

CO[C@H]1O[C@@H]2O[C@@]3(C)CC[C@H]4[C@H](C)CC[C@@H]([C@H]1C)[C@@]24OO3 [artemether]
toxicity in monkeys [2]: no toxicity

CC1(C)C=Cc2c(ccc3c2OC[C@@H](c2ccc(O)cc2O)C3)O1 [glabridin, Glabridin]
cyclooxygenase activity (cyclooxygenase): inhibited the cyclooxygenase activity
pigmentation induced by UVB radiation ([3]; 0.5% solution, topical, backs of brownish guinea pigs): significantly reduced pigmentation
inflammation induced by UVB irradiation ([3]; 0.5% solution, topical, guinea pig skin): decreased the inflammation
DOPA-positive melanocytes ([3]; treated skin, epidermal histology): reduced in number
superoxide (active oxygen) formation [4]: inhibited superoxide (active oxygen) formation
binding to estrogen receptor (human estrogen receptor): binding to the human estrogen receptor
effect on growth of breast tumor cells, low concentrations (breast tumor cells; 10 nM-10 μM, estrogen receptor-dependent): growth-promoting effect
effect on growth of breast tumor cells, high concentrations (breast tumor cells; >15 μM, estrogen receptor-independent): antiproliferative activity
creatine kinase activity (creatine kinase activity): stimulating creatine kinase activity

CC1=CCC[C@]2(C)CC[C@@H](C(C)(C)O)C[C@@H]12 [α-eudesmol]
post-ischemic brain injury [5]: attenuates post-ischemic brain injury
inhibition of P/Q-type Ca2+ channel [6]: potently inhibits
inhibition of neurogenic inflammation (neurogenic inflammation): potently inhibits

C=C1CCC[C@]2(C)CC[C@@H](C(C)(C)O)C[C@@H]12 [β-eudesmol]
proliferation of porcine brain microvascular endothelial cells [7]: inhibited
angiogenesis in adjuvant-induced granuloma (angiogenesis): significantly inhibited angiogenesis
angiogenesis in subcutaneously implanted Matrigel plugs (angiogenesis): significantly inhibited angiogenesis
phosphorylation of ERK 1/2 induced by bFGF or vascular endothelial growth factor [8]: blocked the phosphorylation
neurite extension (PC-12 cells; 100 and 150 μM): significantly induced neurite extension
[3H]thymidine incorporation (PC-12 cells; at the highest concentration (150 μM)): suppression of [^3H]thymidine incorporation
inhibition of Na+,K+-ATPase activity (Na^+, K(+)-ATPase): most strongly among the various kinds of phosphatases examined
HUVEC migration stimulated by bFGF [9]: inhibited the HUVEC migration
tube formation by HUVEC in Matrigel [9]: inhibited
proliferation of HUVEC ([9]; 50-100 microM): inhibited
desensitization of the nicotinic ACh receptor [10]: accelerated the desensitization
nicotinic ACh receptor channel block ([10]; mouse skeletal muscles): blocked the nicotinic ACh receptor channel in both the open and closed conformations
